The text below walks through data of PubChem BioAssay (NCI).

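96-well plates; 48 h exposure; 5 concentrations. Endpoints by linear interpolation between flanking doses. Not reached: highest tested concentration assigned. GI50 = concentration required for 50% inhibition of growth. TGI is the concentration that stops growth completely.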 Where only a bound is given, the exact number is not on record here.

Among the test systems are A549 NSCLC; HCC-2998 colon; HOP-92 NSCLC; IGROV1 ovarian; MCF7 breast; MDA-MB-231 breast; NCI-H23 lung; NCI-H460 lung; NCI-H522 lung; SK-MEL-5 melanoma.
Experiment in all cases: NCI anticancer screen, dose series, 48 h

For `COc1cccc2c1nc1cccc(OC)c1[n+]2[O-]`, the GI50 with A549 NSCLC was 7.8 µM; in the assay on HCC-2998 colon, 1500 nM; in the assay on HOP-92 NSCLC it was 2710 nM; in the assay on IGROV1 ovarian, 2350 nM; in the assay on MCF7 breast, 941 nM; in the assay on MDA-MB-231 breast, 16400 nM. Besides, the GI50 was 2560 nM in the assay with NCI-H23 lung, 2760 nM in the assay with NCI-H460 lung, 3980 nM with NCI-H522 lung and 6.96 µM with SK-MEL-5 melanoma. Moreover, the TGI in the assay with A549 NSCLC stood at 38.9 µM; with HCC-2998 colon, 6.98 µM; in the assay with HOP-92 NSCLC, 9.28 µM; in the assay on IGROV1 ovarian, 15.9 µM; in the assay on MCF7 breast it was 12.9 µM; with MDA-MB-231 breast, 41.4 µM. Besides, the TGI was found to be 18.9 µM in the assay on NCI-H23 lung, 10.7 µM with NCI-H460 lung, 18.1 µM in the assay with NCI-H522 lung and 20 µM in the assay with SK-MEL-5 melanoma.

In the case of `C/C(=C1/N=C(c2ccccc2)OC1=O)c1ccc(C)cc1`, the TGI in the assay on A549 NSCLC, in the assay with HCC-2998 colon, in the assay on HOP-92 NSCLC, with IGROV1 ovarian, in the assay with MCF7 breast and with MDA-MB-231 breast was > 100 µM each time. Also, the TGI with NCI-H23 lung, in the assay on NCI-H460 lung, with NCI-H522 lung and in the assay on SK-MEL-5 melanoma was > 100 µM throughout.

Turning to `NC(=O)c1ccc2nc(-c3ccc(C4(N)CCC4)cc3)c(-c3ccccc3)n2n1`, the GI50 with A549 NSCLC was 11.7 µM; with HCC-2998 colon, 13000 nM; in the assay on HOP-92 NSCLC, 815 nM; in the assay with IGROV1 ovarian it was 88.6 nM; with MCF7 breast, 158 nM; with MDA-MB-231 breast, 14300 nM. In addition, the GI50 with NCI-H23 lung is 16400 nM; with NCI-H460 lung it was 2150 nM; in the assay with NCI-H522 lung, 16700 nM; in the assay with SK-MEL-5 melanoma, 10.9 µM. For the same molecule, the TGI in the assay with A549 NSCLC is 28.5 µM; in the assay with HCC-2998 colon, 31.7 µM; in the assay on HOP-92 NSCLC it was 14.1 µM; in the assay on IGROV1 ovarian it was 10.7 µM; with MCF7 breast, 17.5 µM; in the assay on MDA-MB-231 breast, 32.3 µM. Moreover, the TGI was 51.8 µM in the assay with NCI-H23 lung, 19.4 µM in the assay with NCI-H460 lung, 33.9 µM with NCI-H522 lung and 23.3 µM in the assay on SK-MEL-5 melanoma.

In the case of `O=C(Nc1ccc(Cl)cc1F)c1cc(F)ccc1O`, the GI50 was 2.79 µM with A549 NSCLC; 2640 nM with HCC-2998 colon; 196 nM in the assay with HOP-92 NSCLC; 597 nM with IGROV1 ovarian; 1770 nM in the assay with MCF7 breast; 761 nM in the assay on MDA-MB-231 breast. In addition, the GI50 with NCI-H23 lung was 553 nM; with NCI-H460 lung, 647 nM; in the assay with NCI-H522 lung, 379 nM; with SK-MEL-5 melanoma, 0.274 µM. Besides, the TGI in the assay on A549 NSCLC is > 45.8 µM; in the assay on HCC-2998 colon it was 8.1 µM; with HOP-92 NSCLC, 0.874 µM; in the assay on IGROV1 ovarian, 17.2 µM; with MCF7 breast, 9.28 µM; in the assay on MDA-MB-231 breast, 3.81 µM. Further, the TGI amounted to 3.29 µM with NCI-H23 lung, 13.5 µM in the assay on NCI-H460 lung, 9.26 µM in the assay with NCI-H522 lung and 0.847 µM with SK-MEL-5 melanoma.

`CN1C(=O)N(C)C2C1NN=c1s/c(=C\c3c[nH]c4ccccc34)c(=O)n12` (stereo not given): the GI50 in the assay with A549 NSCLC was 0.109 µM; in the assay on HCC-2998 colon, 35.2 nM; with HOP-92 NSCLC it was 360 nM; in the assay on IGROV1 ovarian it was 65.4 nM; in the assay with MCF7 breast it was 33.8 nM; with MDA-MB-231 breast, 67.1 nM. Besides, the GI50 in the assay on NCI-H23 lung was 47.9 nM; in the assay on NCI-H460 lung it was 39.7 nM; in the assay with NCI-H522 lung it was 33.1 nM; with SK-MEL-5 melanoma, 0.0347 µM. Also, the TGI in the assay on A549 NSCLC, with HCC-2998 colon, in the assay on HOP-92 NSCLC, with IGROV1 ovarian, in the assay on MCF7 breast and with MDA-MB-231 breast was > 100 µM each time. Besides, the TGI in the assay on NCI-H23 lung is > 100 µM; in the assay with NCI-H460 lung, > 100 µM; with NCI-H522 lung it was 18.9 µM; with SK-MEL-5 melanoma, 0.184 µM.

Turning to `COc1cc(/C=C2\CCCC3C2=Nc2ccccc2NC3c2cc(OC)c(OC)c(OC)c2)cc(OC)c1OC` (stereo not given), the GI50 in the assay with A549 NSCLC is 1.9 µM; in the assay on HCC-2998 colon it was 2300 nM; with HOP-92 NSCLC, 1830 nM; in the assay on IGROV1 ovarian it was 4100 nM; with MCF7 breast, 2480 nM; with MDA-MB-231 breast, 2900 nM. The GI50 is 2150 nM in the assay with NCI-H23 lung, 643 nM with NCI-H460 lung, 1900 nM in the assay with NCI-H522 lung and 1.95 µM in the assay with SK-MEL-5 melanoma. Further, the TGI with A549 NSCLC was 8.06 µM; in the assay with HCC-2998 colon, 4.81 µM; with HOP-92 NSCLC, 9.84 µM; in the assay with IGROV1 ovarian, 18.5 µM; with MCF7 breast, > 100 µM; with MDA-MB-231 breast it was 25 µM. Besides, the TGI in the assay with NCI-H23 lung stood at 13.8 µM; in the assay on NCI-H460 lung it was 2.42 µM; in the assay with NCI-H522 lung, 4.92 µM; in the assay on SK-MEL-5 melanoma, 5.72 µM.

Consider `[C-]#[O+].[C-]#[O+].[Ir].[O-]c1ccc2ccccc2c1N=Nc1ccccc1`, for which the TGI with A549 NSCLC was 70.1 µM; with HCC-2998 colon, 29.4 µM; in the assay with HOP-92 NSCLC, 32.4 µM; in the assay with IGROV1 ovarian, 37.1 µM; with MCF7 breast, 21 µM; in the assay on MDA-MB-231 breast, 40.7 µM. The TGI in the assay with NCI-H23 lung is 31.7 µM; in the assay with NCI-H460 lung it was > 70.6 µM; with NCI-H522 lung, 4.01 µM; with SK-MEL-5 melanoma it was 28.7 µM.

In the case of `CCCCCCCCCCCCOC1C(CNCC2OC3OC(C)(C)OC3C2NC(=O)Nc2ccc(C(F)(F)F)cc2)OC2OC(C)(C)OC21` (stereo not given), the GI50 with A549 NSCLC is 8.53 µM; in the assay on HCC-2998 colon, 3050 nM; in the assay with HOP-92 NSCLC, 7400 nM; in the assay on IGROV1 ovarian, 6770 nM; in the assay on MCF7 breast, 3530 nM; in the assay on MDA-MB-231 breast, 2940 nM. The GI50 is 8780 nM in the assay on NCI-H23 lung, 4230 nM with NCI-H460 lung, 3960 nM with NCI-H522 lung and 8.15 µM in the assay with SK-MEL-5 melanoma. The TGI with A549 NSCLC is 22 µM; in the assay with HCC-2998 colon it was 5.88 µM; in the assay with HOP-92 NSCLC, 14.4 µM; in the assay on IGROV1 ovarian it was 15.6 µM; in the assay with MCF7 breast, 7.94 µM; in the assay on MDA-MB-231 breast, 7.37 µM. Besides, the TGI in the assay on NCI-H23 lung was 19 µM; in the assay on NCI-H460 lung, 11.8 µM; with NCI-H522 lung, 9.21 µM; in the assay on SK-MEL-5 melanoma, 15.1 µM.
